We go through 25 compounds from ChEMBL document CHEMBL3751662, “Novel quinoline derivatives as potent in vitro -glucosidase inhibitors: in silico studies and SAR predictions” (Medchemcomm, 2015).

What is called IC50 is the concentration that gives 50% inhibition. Higher therefore signals a need for much substance. Usually inhibition stands for how much of the control response was suppressed. Lower therefore signals a response near the control.

A value given as a limit tells only on which side of the number the result lay.

The nature of data set [1]: Cytotoxicity against Wistar rat CC1 cells assessed as cell viability at 1 to 20 ug/ml after 48 hrs by MTT assay. The following applies: cc-1, 48 h. It is filed as cell-based. (Tetrazolium dyes change colour on reduction, which living cells bring about.)
Data set [2] has as its target alpha-glucosidase (Saccharomyces cerevisiae). The data set can be described thus: Inhibition of alpha-glucosidase (Saccharomyces cerevisiae) using p-nitrophenyl glucopyranoside as substrate preincubated for 10 mins followed by substrate addition measured after 30 mins by plate reader analysis.
Data set [3] in a line: Cytotoxicity against mouse 3T3L1 cells assessed as cell viability at 1 to 20 ug/ml after 48 hrs by MTT assay. It is filed as cell-based. The settings on record: 3t3-l1, 48 h.
Data set [4] deals with alpha-glucosidase (Saccharomyces cerevisiae). The data set is described as follows: Potency index, ratio of acarbose IC50 to compound IC50 for alpha glucosidase (Saccharomyces cerevisiae).

In the case of `O=C(N/N=C/c1ccc(O)cc1)c1ccc(-c2nnc(-c3ccc4ncccc4c3)o2)cc1`, the Activity result in data set [1] and in data set [3] was “Non-toxic” in each case. The compound further yielded an IC50 in data set [2] of 27.2 µM.
For `O=C(N/N=C/c1cccc(Cl)c1)c1ccc(-c2nnc(-c3ccc4ncccc4c3)o2)cc1`, the Activity result in data set [1] and in data set [3] was “Non-toxic” each time. The compound also displayed an IC50 in data set [2] of 30.2 µM.
As to `O=C(N/N=C/c1ccccc1Cl)c1ccc(-c2nnc(-c3ccc4ncccc4c3)o2)cc1`, the Activity result in data set [1] and in data set [3] was “Non-toxic” each time. Besides, in data set [2], the IC50 was 4.16 µM.
Regarding `O=C(N/N=C/c1ccc(Cl)cc1)c1ccc(-c2nnc(-c3ccc4ncccc4c3)o2)cc1`, the Activity entry in data set [1] and in data set [3] was “Non-toxic” throughout. Half-maximal inhibition in data set [2] (IC50) required 3.9 µM.
Consider `O=C(N/N=C/c1ccc(O)c(O)c1)c1ccc(-c2nnc(-c3ccc4ncccc4c3)o2)cc1`, for which the Activity entry in data set [1] and in data set [3] was “Non-toxic” each time. The same compound had an IC50 in data set [2] of 2.6 µM. Also, the Ratio IC50 in data set [4] was more than 14.
In the case of `O=C(N/N=C/c1ccccn1)c1ccc(-c2nnc(-c3ccc4ncccc4c3)o2)cc1`, the Activity result in data set [1] and in data set [3] was “Non-toxic” each time. Further, the IC50 in data set [2] is 40.5 µM.
On to `O=C(N/N=C/c1ccc(O)cc1O)c1ccc(-c2nnc(-c3ccc4ncccc4c3)o2)cc1`, for which the Activity entry in data set [1] and in data set [3] was “Non-toxic” each time. For the same compound, in data set [2], the IC50 is 8.45 µM.
In the case of `O=C(N/N=C/c1c(O)cc(O)cc1O)c1ccc(-c2nnc(-c3ccc4ncccc4c3)o2)cc1`, the Activity result in data set [1] and in data set [3] was “Non-toxic” each time. Inhibition in data set [2] was half-maximal at 8.12 µM (IC50).
Regarding `O=C(N/N=C/c1cc(O)c(O)cc1O)c1ccc(-c2nnc(-c3ccc4ncccc4c3)o2)cc1`, the Activity result in data set [1] and in data set [3] was “Non-toxic” each time. Besides, the IC50 in data set [2] came to 2.6 µM. Further, the Ratio IC50 in data set [4] is more than 14.
For `Cc1ccc(/C=N/NC(=O)c2ccc(-c3nnc(-c4ccc5ncccc5c4)o3)cc2)cc1`, the Activity entry in data set [1] and in data set [3] was “Non-toxic” throughout. This compound also displayed an IC50 in data set [2] of 102 µM.
On to `O=C(N/N=C/c1cccc([N+](=O)[O-])c1)c1ccc(-c2nnc(-c3ccc4ncccc4c3)o2)cc1`, for which the Activity entry in data set [1] and in data set [3] was “Non-toxic” in each case. This compound also came in with an IC50 in data set [2] of 36.5 µM.
`COc1ccc(/C=N/NC(=O)c2ccc(-c3nnc(-c4ccc5ncccc5c4)o3)cc2)cc1O`: the Activity result in data set [1] and in data set [3] was “Non-toxic” throughout. The IC50 in data set [2] came to 21.2 µM.
Consider `Cc1ccccc1/C=N/NC(=O)c1ccc(-c2nnc(-c3ccc4ncccc4c3)o2)cc1`, for which the Activity result in data set [1] and in data set [3] was “Non-toxic” each time. The compound also returned an IC50 in data set [2] of 80.1 µM.
For the compound `O=C(N/N=C/c1ccncc1)c1ccc(-c2nnc(-c3ccc4ncccc4c3)o2)cc1`, the Activity result in data set [1] and in data set [3] was “Non-toxic” in each case. Besides, in data set [2], the inhibition is less than 50%.
On to `O=C(N/N=C/c1ccc([N+](=O)[O-])cc1)c1ccc(-c2nnc(-c3ccc4ncccc4c3)o2)cc1`, for which the Activity entry in data set [1] and in data set [3] was “Non-toxic” throughout. This compound registered an IC50 in data set [2] of 63.5 µM.
Consider `COc1ccc(O)c(/C=N/NC(=O)c2ccc(-c3nnc(-c4ccc5ncccc5c4)o3)cc2)c1`, for which the Activity entry in data set [1] and in data set [3] was “Non-toxic” throughout. The compound also showed an IC50 in data set [2] of 6.2 µM.
Turning to `O=C(N/N=C/c1cccc(O)c1O)c1ccc(-c2nnc(-c3ccc4ncccc4c3)o2)cc1`, the Activity result in data set [1] and in data set [3] was “Non-toxic” in each case. Further, the IC50 in data set [2] is 6.8 µM.
Consider `O=C(N/N=C/c1cccc(O)c1)c1ccc(-c2nnc(-c3ccc4ncccc4c3)o2)cc1`, for which the Activity entry in data set [1] and in data set [3] was “Non-toxic” in each case. This compound returned an IC50 in data set [2] of 39.2 µM.
As for `COc1ccc(/C=N/NC(=O)c2ccc(-c3nnc(-c4ccc5ncccc5c4)o3)cc2)c(O)c1`, the Activity entry in data set [1] and in data set [3] was “Non-toxic” each time. The compound further had an IC50 in data set [2] of 9.2 µM.
As for `O=C(N/N=C/c1ccccc1[N+](=O)[O-])c1ccc(-c2nnc(-c3ccc4ncccc4c3)o2)cc1`, the Activity entry in data set [1] and in data set [3] was “Non-toxic” each time. The IC50 in data set [2] was determined as 15.2 µM.
As to `Cc1cccc(/C=N/NC(=O)c2ccc(-c3nnc(-c4ccc5ncccc5c4)o3)cc2)c1`, the Activity entry in data set [1] and in data set [3] was “Non-toxic” each time. The IC50 in data set [2] came out at 100 µM.
For `O=C(N/N=C/c1cccnc1)c1ccc(-c2nnc(-c3ccc4ncccc4c3)o2)cc1`, the Activity entry in data set [1] and in data set [3] was “Non-toxic” each time. For the same compound, the inhibition in data set [2] is less than 50%.
Regarding `O=C(N/N=C/c1cc(O)cc(O)c1)c1ccc(-c2nnc(-c3ccc4ncccc4c3)o2)cc1`, the Activity result in data set [1] and in data set [3] was “Non-toxic” throughout. This compound had an IC50 in data set [2] of 37.1 µM.
For the compound `O=C(N/N=C/c1cc(O)ccc1O)c1ccc(-c2nnc(-c3ccc4ncccc4c3)o2)cc1`, the Activity entry in data set [1] and in data set [3] was “Non-toxic” each time. For the same compound, 8.5 µM corresponded to half-maximal inhibition in data set [2] (IC50).
Consider `O=C(N/N=C/c1ccccc1O)c1ccc(-c2nnc(-c3ccc4ncccc4c3)o2)cc1`, for which the Activity entry in data set [1] and in data set [3] was “Non-toxic” each time. Moreover, in data set [2], half-maximal inhibition (IC50) was put at 2.86 µM. Besides, in data set [4], the Ratio IC50 was more than 14.
